# Reference: US6538107B1, “G protein coupled receptor protein production, and use thereof” (Takeda Chemical Industries, Ltd., priority 1994, dated 2003)
# Test system: oocytes injected with H2O
# Assay: Electrophysiological measurement in control Xenopus oocytes injected with H2O instead of pMAH2-17 cRNA
# Assay type: cell-based
# Settings: ATP stimulation, initial membrane potential −60 mV
compound,measurement,value
"Nc1ncnc2c1ncn2[C@@H]1O[C@H](COP(=O)(O)OP(=O)(O)OP(=O)(O)O)[C@@H](O)[C@H]1O [ATP, Adenosine triphosphate]",inward currents (current changes of the membrane) evoked by ATP,such a current was not observed
